Laboratory results from PMC4053365 (PLoS ONE, 2014).
Counter-ions that a name gives are not always drawn.

Legend:
human KOP receptor [1] = target: T1, human KOP receptor (Homo sapiens, UniProt P41145); experiment: biochemical; set-up: expressed in transfected cells; host or cells: CHO (CHOhKOP) cell membranes
human MOP receptor [2] = target: T2, human MOP receptor (Homo sapiens, UniProt P35372); experiment: biochemical; format: biochemical; set-up: expressed in transfected cells; host or cells: CHO (CHOhMOP) cell membranes
T2 sequence (P35372 whole entry): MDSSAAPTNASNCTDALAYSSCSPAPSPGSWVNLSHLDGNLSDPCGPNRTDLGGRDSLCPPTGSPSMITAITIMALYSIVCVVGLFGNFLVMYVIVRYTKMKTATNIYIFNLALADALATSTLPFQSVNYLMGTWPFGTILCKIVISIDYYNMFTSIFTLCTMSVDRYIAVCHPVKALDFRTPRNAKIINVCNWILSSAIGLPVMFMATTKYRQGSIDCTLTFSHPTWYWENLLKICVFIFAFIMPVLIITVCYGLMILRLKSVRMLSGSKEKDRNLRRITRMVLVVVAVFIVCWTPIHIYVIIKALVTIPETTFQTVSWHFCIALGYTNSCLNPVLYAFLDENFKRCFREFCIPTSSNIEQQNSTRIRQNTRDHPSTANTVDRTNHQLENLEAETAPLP

MOP receptor = target: T3, MOP receptor (Rattus norvegicus, UniProt P33535); experiment: Radioligand binding assay, [3H]DAMGO, rat brain membranes; conditions: for Selectivity ratio DOP/MOP / Selectivity ratio KOP/MOP: ratio of Ki values
T3 construct: Membranes were prepared from Sprague-Dawley rat or guinea pig brains; from tissue; host or cells: Sprague-Dawley rat brain membranes
T3 sequence (P33535 whole entry): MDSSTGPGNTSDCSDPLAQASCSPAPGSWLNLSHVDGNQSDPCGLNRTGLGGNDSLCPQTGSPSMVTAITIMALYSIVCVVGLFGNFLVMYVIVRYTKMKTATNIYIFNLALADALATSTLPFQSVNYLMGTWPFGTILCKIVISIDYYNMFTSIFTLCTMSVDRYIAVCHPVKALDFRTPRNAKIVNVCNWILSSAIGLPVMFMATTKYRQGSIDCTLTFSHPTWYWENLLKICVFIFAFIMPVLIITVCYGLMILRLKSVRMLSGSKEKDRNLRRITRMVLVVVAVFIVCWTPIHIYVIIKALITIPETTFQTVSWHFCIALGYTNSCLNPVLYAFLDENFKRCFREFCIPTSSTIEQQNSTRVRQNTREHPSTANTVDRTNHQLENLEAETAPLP

human MOP receptor [3] = target: T2, human MOP receptor; experiment: cell-based; format: cell-based; set-up: expressed in transfected cells; host or cells: CHO (CHOhMOP) stably expressing Gαqi5, whole cells
human DOP receptor [4] = target: T4, human DOP receptor (Homo sapiens, UniProt P41143); format: cell-based; set-up: expressed in transfected cells; host or cells: CHO (CHOhDOP) stably expressing GαqG66Di5, whole cells; conditions: CHO cells co-expressing human DOP and GαqG66Di5; inactive = inactive up to 10 µM; crc = concentration response curve
T4 sequence (P41143 whole entry): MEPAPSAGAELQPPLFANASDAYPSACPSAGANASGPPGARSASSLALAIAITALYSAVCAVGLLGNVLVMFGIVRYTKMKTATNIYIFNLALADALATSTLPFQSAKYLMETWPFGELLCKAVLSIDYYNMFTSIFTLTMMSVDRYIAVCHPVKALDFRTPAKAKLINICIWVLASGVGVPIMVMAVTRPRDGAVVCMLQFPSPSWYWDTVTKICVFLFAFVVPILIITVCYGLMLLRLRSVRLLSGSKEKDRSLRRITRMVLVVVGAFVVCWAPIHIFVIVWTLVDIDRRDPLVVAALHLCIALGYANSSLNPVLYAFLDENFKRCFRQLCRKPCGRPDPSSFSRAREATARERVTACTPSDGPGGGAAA

mice [5] = experiment: Hot-plate test (acute thermal nociception); format: in vivo; conditions: s.c.; for ED50: Mus musculus, sc, 0.5 h, 30 min after administration, read-out: ED50 (95% CL) Hot-plate test
mice [6] = experiment: Observation of locomotor activity and sedation during antinociception testing; format: in vivo; conditions: s.c., any tested dose, about 3- to 4-fold the analgesic ED50 dose
human KOP receptor [7] = target: T1, human KOP receptor; format: cell-based; set-up: expressed in transfected cells; host or cells: CHO (CHOhKOP) stably expressing Gαqi5, whole cells
mice [8] = experiment: Tail-flick test (acute thermal nociception); format: in vivo; conditions: s.c.; for ED50: Mus musculus, sc, 0.5 h, 30 min after administration, read-out: ED50 (95% CL) Tail-flick test
DOP receptor = target: T5, DOP receptor (Rattus norvegicus, UniProt P33533); experiment: Radioligand binding assay, [3H][Ile5,6]deltorphin II, rat brain membranes
T5 construct: Membranes were prepared from Sprague-Dawley rat or guinea pig brains; from tissue; host or cells: Sprague-Dawley rat brain membranes
T5 sequence (P33533 whole entry): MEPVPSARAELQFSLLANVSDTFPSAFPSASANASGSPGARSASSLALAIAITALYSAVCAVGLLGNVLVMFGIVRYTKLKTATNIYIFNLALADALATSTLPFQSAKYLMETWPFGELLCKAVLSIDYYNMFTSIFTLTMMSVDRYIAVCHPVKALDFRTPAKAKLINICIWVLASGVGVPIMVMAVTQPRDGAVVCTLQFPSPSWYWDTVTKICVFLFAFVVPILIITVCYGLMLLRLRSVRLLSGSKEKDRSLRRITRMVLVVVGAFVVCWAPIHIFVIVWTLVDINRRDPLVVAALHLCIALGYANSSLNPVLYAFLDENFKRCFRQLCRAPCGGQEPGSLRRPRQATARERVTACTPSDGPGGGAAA

human DOP receptor [9] = target: T4, human DOP receptor; experiment: biochemical; set-up: expressed in transfected cells; host or cells: CHO (CHOhDOP) cell membranes
KOP receptor = target: T6, KOP receptor (Cavia porcellus, UniProt P41144); experiment: Radioligand binding assay, [3H]U69,593, guinea pig brain membranes
T6 construct: Membranes were prepared from Sprague-Dawley rat or guinea pig brains; from tissue; host or cells: guinea pig brain membranes
T6 sequence (P41144 whole entry): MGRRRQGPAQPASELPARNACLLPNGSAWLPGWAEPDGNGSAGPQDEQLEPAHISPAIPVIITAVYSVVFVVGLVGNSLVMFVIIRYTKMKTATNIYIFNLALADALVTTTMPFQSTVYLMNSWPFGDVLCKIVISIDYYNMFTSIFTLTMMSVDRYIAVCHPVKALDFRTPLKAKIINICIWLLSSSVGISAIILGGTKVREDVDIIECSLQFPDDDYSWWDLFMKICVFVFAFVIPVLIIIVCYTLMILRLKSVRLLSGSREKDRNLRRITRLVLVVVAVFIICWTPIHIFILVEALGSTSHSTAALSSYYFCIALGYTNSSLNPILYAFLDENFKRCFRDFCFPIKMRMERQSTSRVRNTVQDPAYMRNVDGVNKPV

DOP = target: DOP; set-up: method as in earlier work; conditions: read-out: Ki DOP (previously reported); cited from earlier work
MOP = target: MOP; set-up: method as in earlier work; conditions: read-out: Ki MOP (previously reported); cited from earlier work
KOP = target: KOP; set-up: method as in earlier work; conditions: read-out: Ki KOP (previously reported); cited from earlier work
rodents = conditions: fraction or fold of morphine potency; cited from earlier work

T1 sequence (P41145 whole entry): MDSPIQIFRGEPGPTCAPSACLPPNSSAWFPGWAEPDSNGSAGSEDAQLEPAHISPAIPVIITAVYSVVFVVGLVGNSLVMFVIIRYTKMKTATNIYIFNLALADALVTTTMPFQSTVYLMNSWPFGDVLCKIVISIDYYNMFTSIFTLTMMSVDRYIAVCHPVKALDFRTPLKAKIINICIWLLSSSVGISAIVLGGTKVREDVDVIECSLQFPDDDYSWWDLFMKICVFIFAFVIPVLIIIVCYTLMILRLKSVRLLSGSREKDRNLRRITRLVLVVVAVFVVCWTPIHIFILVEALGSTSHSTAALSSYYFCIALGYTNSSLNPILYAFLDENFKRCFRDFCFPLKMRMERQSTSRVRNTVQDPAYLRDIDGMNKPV

`O=C1CC[C@@]2(O)[C@H]3Cc4ccc(O)c5c4[C@@]2(CCN3CCc2ccccc2)[C@H]1O5` (as salt: HCl) [Compound 6, N-phenethylnoroxymorphone] showed a melting point of 85 to 90 °C.

Molecule `Oc1ccc2c3c1O[C@H]1[C@@H](O)C=C[C@H]4[C@@H](C2)N(CCc2ccccc2)CC[C@@]341` [Compound 1, N-phenethylnormorphine] has an EC50 (human KOP receptor [1]) of 1.05 µM, an Emax (human KOP receptor [1]; read-out: [35S]GTPγS functional assay KOP Emax) of 19 ± 2% and an EC50 (human MOP receptor [2]) of 0.0103 ± 0.0009 µM. The “MOP agonist potency in [35S]GTPγS more potent than DAMGO” value (human MOP receptor [2]) was 2 fold, the “MOP agonist potency in [35S]GTPγS more potent than morphine” value (human MOP receptor [2]) was “about 3 fold” and the Emax (human MOP receptor [2]; read-out: [35S]GTPγS functional assay MOP Emax) was 113 ± 8%. For the same molecule, the Ki (MOP receptor) was 0.00093 ± 0.00014 µM, the “Selectivity ratio DOP/MOP” value (MOP receptor) was 40 and the “Selectivity ratio KOP/MOP” value (MOP receptor) was 115. For the same molecule, the “MOP receptor affinity greater than morphine” value (MOP receptor; vs morphine) was 7 fold, the “Calcium mobilization MOP more active than 14-hydroxy analogue 4” value (human MOP receptor [3]) was “about 3 fold” and the “Calcium mobilization MOP more potent than morphine” value (human MOP receptor [3]) was “about 3 fold”. The EC50 (human MOP receptor [3]) was 0.0488 ± 0.014 µM, the Emax (human MOP receptor [3]; read-out: Calcium mobilization assay MOP Emax) was 70 ± 4% and the “Calcium mobilization assay DOP EC50” value (human DOP receptor [4]) was “crc incomplete ^e”. For the same molecule, the ED50 (mice [5]) was 0.11 mg/kg, the “Hot-plate test, more effective than morphine” value (mice [5]; vs morphine) was 22 fold and the “Locomotor activity and sedative effects” value (mice [6]) was “no major alterations in locomotor activity and no sedative effects”. For the same molecule, the melting point was 255 to 257 °C, the “Calcium mobilization assay KOP EC50” value (human KOP receptor [7]) was “inactive ^d” and the “Calcium mobilization assay KOP Emax” value (human KOP receptor [7]) was “inactive ^d”. For the same molecule, the ED50 (mice [8]) was 0.11 mg/kg, the “Tail-flick test, more effective than morphine” value (mice [8]; vs morphine) was 28 fold and the Ki (DOP receptor) was 0.037 ± 0.0055 µM. It also gave an EC50 (human DOP receptor [9]) of 0.712 ± 0.086 µM, an Emax (human DOP receptor [9]; read-out: [35S]GTPγS functional assay DOP Emax) of 138 ± 17% and a Ki (KOP receptor) of 0.107 ± 0.018 µM.

For `Oc1ccc2c3c1O[C@H]1[C@@H](O)C=C[C@H]4[C@@H](C2)N(CCCc2ccccc2)CC[C@@]341` [Compound 2, N-phenylpropylnormorphine], the Ki (MOP receptor) was 0.0795 ± 0.0011 µM, the “Selectivity ratio DOP/MOP” value (MOP receptor) was 11 and the “Selectivity ratio KOP/MOP” value (MOP receptor) was 7. For the same molecule, the Ki (DOP receptor) was 0.869 ± 0.171 µM and the Ki (KOP receptor) was 0.565 ± 0.024 µM.

With `Oc1ccc2c3c1O[C@H]1[C@@H](O)C=C[C@@]4(O)[C@@H](C2)N(CCc2ccccc2)CC[C@]314` [Compound 4, N-Phenethyl-14-hydroxynormorphine] the Ki (MOP receptor) was 0.0046 ± 1e-05 µM, the “MOP receptor affinity lower than 14-unsubstituted counterpart 1” value (MOP receptor; vs compound 1) was “about 5 fold” and the “MOP receptor binding affinity increase over 14-hydroxymorphine (3)” value (MOP receptor; vs compound 3) was “about 4 fold”. For the same molecule, the “Calcium mobilization assay DOP EC50” value (human DOP receptor [4]) was “inactive ^d”, the “Locomotor activity and sedative effects” value (mice [6]) was “no major alterations in locomotor activity and no sedative effects” and the “Calcium mobilization assay KOP EC50” value (human KOP receptor [7]) was “inactive ^d”. The “Calcium mobilization assay KOP Emax” value (human KOP receptor [7]) was “inactive ^d”, the ED50 (mice [8]) was 1.14 mg/kg and the Ki (DOP receptor) was 0.163 ± 0.017 µM. It also gave a Ki (KOP receptor) of 0.513 ± 0.066 µM.

In the case of `O=C1CC[C@@]2(O)[C@H]3Cc4ccc(O)c5c4[C@@]2(CCN3Cc2ccccc2)[C@H]1O5` [Compound 5, N-Benzylnoroxymorphone], the Ki (DOP) is listed as […], the Ki (MOP) is listed as […] and the Ki (KOP) is listed as […]. For the same molecule, the melting point was 235 to 237 °C.

With `O=C1CC[C@@]2(O)[C@H]3Cc4ccc(O)c5c4[C@@]2(CCN3CCc2ccccc2)[C@H]1O5` [Compound 6, N-phenethylnoroxymorphone] the ED50 (mice [5]) was 0.18 mg/kg, the “Antinociceptive potency higher than 6-hydroxy counterpart 4” value (mice [5]; hot-plate and tail-flick tests, vs compound 4) was “up to 8 fold” and the “Antinociceptive potency higher than oxymorphone” value (mice [5]; hot-plate and tail-flick tests, vs oxymorphone) was “about 2 fold”. The “Locomotor activity and sedative effects” value (mice [6]) was “no major alterations in locomotor activity and no sedative effects” and the ED50 (mice [8]) was 0.15 mg/kg.

For `Oc1ccc2c3c1OC1C(O)C=CC4C(C2)N(Cc2ccccc2)CCC341` (centres unmarked) [N-benzylnormorphine], the “Analgesic potency relative to morphine” value (rodents) is listed as “less than one-tenth”.

Work on `CN1CC[C@]23c4c5ccc(O)c4O[C@H]2C(=O)CC[C@@]3(O)[C@H]1C5` [Oxymorphone, reference compound] yielded an ED50 (mice [5]) of 0.38 mg/kg and an ED50 (mice [8]) of 0.35 mg/kg.

In the case of N-cyclohexylethylnormorphine, the “Analgesic potency relative to morphine” value (rodents) is listed as “one-third”.
